Measured values: patent US20260365670A1, “EGFR INHIBITORS AND USES THEREOF” (DIZAL (JIANGSU) PHARMACEUTICAL CO., LTD., priority 2022, published 2026)
Like-named read-outs stand apart in the source and are kept apart here.

Assays:
EGFR[T790M/C797S/L858R] = molecular target: T1, EGFR[T790M/C797S/L858R] (Homo sapiens, UniProt P00533, C797S/L858R/T790M); experiment: Inhibition of EGFR[T790M/C797S/L858R] biochemical enzymatic activity (HTRF); conditions: EGFR T790M-C797S-L858R, 1 mM ATP, 1 h, room temperature, read-out: IC50 (nM) @T790M- C797S - L858R
T1 construct: purchased Carna Bio
Method in brief: (§1)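 Recombinant kinases phosphorylated 1 μM biotinylated TK substrate with 1 mM ATP in buffer with 5 mM MgCl2, 1 mM MnCl2, 0.01% CHAPS, 1 mM DTT, 0.5% DMSO. Reaction ran 1 h at room temperature, stopped with EDTA-containing detection mix. HTRF 665/615 nm ratio gave IC50 via four-parameter logistic fit.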

PC-9 = experiment: Cell proliferation assay, PC-9 cells (CellTiter-Glo, 72 hours); format: cell-based; conditions: PC9 cells, CellTiter-Glo, read-out: PC9 GI50
Method in brief: (§2)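 Ba/F3 cells (5000/well) and PC-9 cells (500/well, RPMI1640 with 10% FBS) were plated overnight and then dosed with a compound concentration series. Viable cells were read at day 0 (G0) and after treatment (G3). GI50 came from curve fits of G0-corrected proliferation relative to DMSO.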

EGFR (d746-750 C797S) = molecular target: T2, EGFR (d746-750 C797S) (Homo sapiens, UniProt P00533, C797S/DEL746-750); experiment: Inhibition of EGFR (d746-750 C797S) biochemical enzymatic activity (HTRF); conditions: EGFR Del19-C797S, 1 mM ATP, 1 h, room temperature, read-out: IC50 (nM) @Del19-C797S
T2 construct: purchased signalchem
Method in brief: as §1

EGFR wild type = molecular target: T3, EGFR wild type (Homo sapiens, UniProt P00533); experiment: Inhibition of EGFR wild type biochemical enzymatic activity (HTRF); conditions: EGFR WT, 1 mM ATP, 1 h, room temperature, read-out: IC50 (nM) @WT
T3 construct: purchased Carna Bio
Method in brief: as §1

EGFR Exon19Del = molecular target: T4, EGFR Exon19Del (Homo sapiens, UniProt P00533, DEL746-750); experiment: Inhibition of EGFR Exon19Del biochemical enzymatic activity (HTRF); conditions: EGFR Del19, 1 mM ATP, 1 h, room temperature, read-out: IC50 @Del19
T4 construct: purchased Carna Bio
Method in brief: as §1

A-431 = experiment: Cell proliferation GI50, A-431 cells (Table 6); format: cell-based
[1] = test system: Ba/F3 cells expressing EGFR mutations; experiment: Cell proliferation assay, Ba/F3 cells expressing EGFR mutations (CellTiter-Glo, 72 hours); format: cell-based; conditions: CellTiter-Glo
Method in brief: as §2

EGFR L858R = molecular target: T5, EGFR L858R (Homo sapiens, UniProt P00533, L858R); experiment: Inhibition of EGFR L858R biochemical enzymatic activity (HTRF); conditions: 1 mM ATP, 1 h, room temperature, read-out: IC50 (nM) @L858R
T5 construct: purchased Carna Bio
Method in brief: as §1

[2] = molecular target: T6, EGFR[T790M/C797S/d746-750] (Homo sapiens, UniProt P00533, C797S/DEL746-750/T790M); experiment: Inhibition of EGFR[T790M/C797S/d746-750] biochemical enzymatic activity (HTRF); conditions: EGFR T790M-C797S-Del19, 1 mM ATP, 1 h, room temperature, read-out: IC50 (nM) @T790M - C797S - Del19
T6 construct: purchased Carna Bio
Method in brief: as §1

EGFR L858R/T790M = molecular target: T7, EGFR L858R/T790M (Homo sapiens, UniProt P00533, L858R/T790M); experiment: Inhibition of EGFR L858R/T790M biochemical enzymatic activity (HTRF); conditions: EGFR L858R-T790M, 1 mM ATP, 1 h, room temperature, read-out: IC50 (nM) @L858R-T790M
T7 construct: purchased Carna Bio
Method in brief: as §1

EGFR Exon19Del/T790M = molecular target: T8, EGFR Exon19Del/T790M (Homo sapiens, UniProt P00533, DEL746-750/T790M); experiment: Inhibition of EGFR Exon19Del/T790M biochemical enzymatic activity (HTRF); conditions: EGFR Del19-T790M, 1 mM ATP, 1 h, room temperature, read-out: IC50 (nM) @Del19-T790M
T8 construct: purchased Carna Bio
Method in brief: as §1

EGFR (C797S L858R) = molecular target: T9, EGFR (C797S L858R) (Homo sapiens, UniProt P00533, C797S/L858R); experiment: Inhibition of EGFR (C797S L858R) biochemical enzymatic activity (HTRF); conditions: EGFR L858-C797S, 1 mM ATP, 1 h, room temperature, read-out: IC50 (nM) @L858-C797S
T9 construct: purchased signalchem
Method in brief: as §1

[3] = Homo sapiens, A-431, A-431 cells
[4] = Mus musculus, BaF3, 72 h, BaF3 cells, EGFR DEL19-C797S, read-out: DEL19-C797S/BaF3 GI50
[5] = Mus musculus, BaF3, 72 h, BaF3 cells, EGFR DEL19-T790-C797S, read-out: DEL19-T790-C797S/BaF3 GI50
[6] = Mus musculus, BaF3, 72 h, BaF3 cells, EGFR L858R, read-out: L858R/BaF3 GI50
[7] = Mus musculus, BaF3, 72 h, BaF3 cells, EGFR L858R-C797S, read-out: L858R-C797S/BaF3 GI50
[8] = Mus musculus, BaF3, 72 h, BaF3 cells, EGFR L858R-T790-C797S, read-out: L858R-T790-C797S/BaF3 GI50
[9] = Mus musculus, BaF3, 72 h, BaF3 cells, EGFR L858R-T790M, read-out: L858R-T790M/BaF3 GI50
[10] = Mus musculus, BaF3, 72 h, EGFR DEL19-T790M, read-out: DEL19-T790M GI50
[11] = BaF3 cells, EGFR DEL19-C797S, read-out: DEL19-C797S/BaF3 GI50
[12] = BaF3 cells, EGFR DEL19-T790-C797S, read-out: DEL19-T790-C797S/BaF3 GI50
[13] = BaF3 cells, EGFR L858R, read-out: L858R/BaF3 GI50
[14] = BaF3 cells, EGFR L858R-C797S, read-out: L858R-C797S/BaF3 GI50
[15] = BaF3 cells, EGFR L858R-T790-C797S, read-out: L858R-T790-C797S/BaF3 GI50
[16] = BaF3 cells, EGFR L858R-T790M, read-out: L858R-T790M/BaF3 GI50
[17] = EGFR DEL19-T790M, read-out: DEL19-T790M GI50

T2 sequence (P00533 with tags, fused parts or gaps DEL746-750/C797S limits assumed): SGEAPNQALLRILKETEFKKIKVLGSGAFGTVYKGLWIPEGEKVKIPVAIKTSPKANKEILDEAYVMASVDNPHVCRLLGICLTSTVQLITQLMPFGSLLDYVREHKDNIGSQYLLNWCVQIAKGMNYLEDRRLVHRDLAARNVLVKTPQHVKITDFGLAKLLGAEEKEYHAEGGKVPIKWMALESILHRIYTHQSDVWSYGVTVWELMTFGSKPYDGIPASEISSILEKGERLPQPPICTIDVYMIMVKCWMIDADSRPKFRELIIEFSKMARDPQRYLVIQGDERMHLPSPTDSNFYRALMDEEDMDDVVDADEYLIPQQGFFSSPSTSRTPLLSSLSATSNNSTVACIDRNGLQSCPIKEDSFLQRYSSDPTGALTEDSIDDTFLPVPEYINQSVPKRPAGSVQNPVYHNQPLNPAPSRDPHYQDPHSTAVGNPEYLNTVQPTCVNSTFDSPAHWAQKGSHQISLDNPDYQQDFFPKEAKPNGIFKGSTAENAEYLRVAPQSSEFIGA
T9 sequence (P00533 25-1210 C797S/L858R): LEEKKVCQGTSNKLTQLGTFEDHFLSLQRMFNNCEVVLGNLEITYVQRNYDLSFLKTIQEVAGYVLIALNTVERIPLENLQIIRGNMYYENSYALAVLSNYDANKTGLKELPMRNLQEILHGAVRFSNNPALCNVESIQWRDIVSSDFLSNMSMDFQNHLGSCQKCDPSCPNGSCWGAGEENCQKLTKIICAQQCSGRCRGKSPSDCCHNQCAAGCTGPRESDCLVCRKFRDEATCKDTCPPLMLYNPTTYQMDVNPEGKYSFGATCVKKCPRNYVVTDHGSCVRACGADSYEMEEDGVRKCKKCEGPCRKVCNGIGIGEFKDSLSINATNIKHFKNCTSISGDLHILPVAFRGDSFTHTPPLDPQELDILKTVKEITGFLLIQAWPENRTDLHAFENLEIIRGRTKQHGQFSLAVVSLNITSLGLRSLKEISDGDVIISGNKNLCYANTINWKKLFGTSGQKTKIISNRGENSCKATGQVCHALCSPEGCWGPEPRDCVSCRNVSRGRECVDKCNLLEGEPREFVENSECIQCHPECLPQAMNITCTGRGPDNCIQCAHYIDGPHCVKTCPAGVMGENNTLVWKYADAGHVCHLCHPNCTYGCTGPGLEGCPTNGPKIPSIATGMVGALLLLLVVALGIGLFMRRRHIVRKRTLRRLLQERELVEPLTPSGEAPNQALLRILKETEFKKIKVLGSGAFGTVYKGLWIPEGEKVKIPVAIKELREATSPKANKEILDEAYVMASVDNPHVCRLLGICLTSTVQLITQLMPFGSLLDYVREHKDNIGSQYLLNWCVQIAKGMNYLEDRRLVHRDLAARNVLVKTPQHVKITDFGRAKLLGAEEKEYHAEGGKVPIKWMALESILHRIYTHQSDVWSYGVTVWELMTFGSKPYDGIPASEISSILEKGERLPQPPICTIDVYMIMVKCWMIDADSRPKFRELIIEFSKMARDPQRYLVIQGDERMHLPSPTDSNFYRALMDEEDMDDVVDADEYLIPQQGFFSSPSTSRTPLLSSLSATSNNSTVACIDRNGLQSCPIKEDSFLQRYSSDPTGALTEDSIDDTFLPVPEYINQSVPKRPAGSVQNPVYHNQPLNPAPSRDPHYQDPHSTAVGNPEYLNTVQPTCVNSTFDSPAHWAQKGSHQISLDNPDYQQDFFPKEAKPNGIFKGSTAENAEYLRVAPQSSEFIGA
T8 sequence (P00533 with tags, fused parts or gaps DEL746-750/T790M limits assumed): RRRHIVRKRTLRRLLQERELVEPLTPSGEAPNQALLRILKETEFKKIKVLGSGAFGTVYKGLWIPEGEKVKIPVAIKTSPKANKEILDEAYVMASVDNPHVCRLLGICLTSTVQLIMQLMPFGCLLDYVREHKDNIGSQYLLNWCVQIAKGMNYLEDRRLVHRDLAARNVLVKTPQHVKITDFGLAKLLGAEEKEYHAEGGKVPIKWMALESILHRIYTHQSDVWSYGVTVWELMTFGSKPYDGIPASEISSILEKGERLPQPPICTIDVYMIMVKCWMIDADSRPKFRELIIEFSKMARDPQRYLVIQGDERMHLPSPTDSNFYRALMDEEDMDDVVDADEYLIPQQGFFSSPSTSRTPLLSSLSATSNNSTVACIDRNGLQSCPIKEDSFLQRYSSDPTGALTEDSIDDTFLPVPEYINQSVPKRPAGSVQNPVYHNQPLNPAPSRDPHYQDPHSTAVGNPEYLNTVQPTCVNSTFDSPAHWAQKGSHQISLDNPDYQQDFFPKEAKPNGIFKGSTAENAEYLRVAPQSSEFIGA
T4 sequence (P00533 with tags, fused parts or gaps DEL746-750 limits assumed): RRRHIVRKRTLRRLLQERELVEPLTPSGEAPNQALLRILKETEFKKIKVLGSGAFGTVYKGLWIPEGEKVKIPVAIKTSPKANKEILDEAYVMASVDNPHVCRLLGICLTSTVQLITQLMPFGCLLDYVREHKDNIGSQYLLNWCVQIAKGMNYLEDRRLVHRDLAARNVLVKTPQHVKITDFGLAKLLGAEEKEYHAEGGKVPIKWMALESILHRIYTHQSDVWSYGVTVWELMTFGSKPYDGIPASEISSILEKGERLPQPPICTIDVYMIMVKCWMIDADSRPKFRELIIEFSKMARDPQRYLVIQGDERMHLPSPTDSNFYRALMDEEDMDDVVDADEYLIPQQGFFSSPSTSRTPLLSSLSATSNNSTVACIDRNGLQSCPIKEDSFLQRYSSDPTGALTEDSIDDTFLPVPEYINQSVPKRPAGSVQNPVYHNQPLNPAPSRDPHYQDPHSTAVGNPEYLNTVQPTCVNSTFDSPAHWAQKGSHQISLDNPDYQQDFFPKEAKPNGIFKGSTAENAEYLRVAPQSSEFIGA
T6 sequence (P00533 with tags, fused parts or gaps DEL746-750/T790M/C797S limits assumed): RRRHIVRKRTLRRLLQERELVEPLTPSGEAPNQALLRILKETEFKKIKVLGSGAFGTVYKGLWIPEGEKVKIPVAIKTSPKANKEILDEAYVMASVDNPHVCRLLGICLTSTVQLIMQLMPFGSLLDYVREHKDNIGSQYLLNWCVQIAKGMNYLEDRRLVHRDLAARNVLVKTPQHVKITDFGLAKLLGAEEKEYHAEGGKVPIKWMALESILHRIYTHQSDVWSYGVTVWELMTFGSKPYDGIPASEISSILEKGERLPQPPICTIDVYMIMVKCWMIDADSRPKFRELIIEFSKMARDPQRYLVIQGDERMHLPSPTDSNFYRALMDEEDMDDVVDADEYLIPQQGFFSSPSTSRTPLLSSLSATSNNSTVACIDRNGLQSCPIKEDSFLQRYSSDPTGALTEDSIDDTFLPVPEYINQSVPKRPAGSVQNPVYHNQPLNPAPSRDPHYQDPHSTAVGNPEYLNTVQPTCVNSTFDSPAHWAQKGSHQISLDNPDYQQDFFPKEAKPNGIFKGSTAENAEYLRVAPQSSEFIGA
T1 sequence (P00533 25-1210 T790M/C797S/L858R): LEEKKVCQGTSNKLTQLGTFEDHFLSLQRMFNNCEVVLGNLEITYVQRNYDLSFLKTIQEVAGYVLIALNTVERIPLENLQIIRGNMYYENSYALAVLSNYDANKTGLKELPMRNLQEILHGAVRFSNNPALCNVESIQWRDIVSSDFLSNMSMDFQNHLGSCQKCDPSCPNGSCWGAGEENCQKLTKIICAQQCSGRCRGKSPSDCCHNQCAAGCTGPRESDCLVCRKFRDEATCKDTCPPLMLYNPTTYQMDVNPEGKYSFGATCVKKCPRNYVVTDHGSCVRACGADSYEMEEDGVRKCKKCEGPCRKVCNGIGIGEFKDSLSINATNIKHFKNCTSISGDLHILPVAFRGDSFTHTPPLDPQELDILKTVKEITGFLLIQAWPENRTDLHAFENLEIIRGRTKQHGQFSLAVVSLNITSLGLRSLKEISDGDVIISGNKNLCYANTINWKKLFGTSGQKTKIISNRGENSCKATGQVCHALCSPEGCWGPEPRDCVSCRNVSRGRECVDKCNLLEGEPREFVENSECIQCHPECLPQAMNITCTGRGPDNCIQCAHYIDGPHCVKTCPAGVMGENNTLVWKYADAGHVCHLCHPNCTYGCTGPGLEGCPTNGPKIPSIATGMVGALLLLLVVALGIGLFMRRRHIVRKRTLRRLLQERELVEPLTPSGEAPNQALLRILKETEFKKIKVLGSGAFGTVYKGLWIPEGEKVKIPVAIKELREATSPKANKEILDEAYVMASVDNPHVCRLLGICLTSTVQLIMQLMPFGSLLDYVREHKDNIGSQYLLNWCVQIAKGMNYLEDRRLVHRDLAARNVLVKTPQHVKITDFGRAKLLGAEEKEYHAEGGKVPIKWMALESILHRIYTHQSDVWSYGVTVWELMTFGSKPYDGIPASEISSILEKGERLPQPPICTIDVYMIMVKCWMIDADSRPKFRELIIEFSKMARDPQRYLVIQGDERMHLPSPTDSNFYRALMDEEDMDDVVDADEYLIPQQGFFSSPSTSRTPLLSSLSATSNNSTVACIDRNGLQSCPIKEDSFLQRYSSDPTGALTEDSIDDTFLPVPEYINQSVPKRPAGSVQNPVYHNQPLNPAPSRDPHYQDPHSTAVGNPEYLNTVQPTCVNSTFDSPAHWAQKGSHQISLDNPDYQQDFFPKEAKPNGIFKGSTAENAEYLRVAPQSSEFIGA

IC50 (EGFR[T790M/C797S/L858R]) [nM] | GI50 (PC-9; Homo sapiens, PC-9, 72 h) [nM] | IC50 (EGFR (d746-750 C797S)) [nM] | IC50 (EGFR wild type) [nM] | IC50 (EGFR Exon19Del) [nM] | GI50 (A-431; [3]) [nM] | GI50 [1, 4] [nM] | GI50 [1, 5] [nM] | GI50 [1, 6] [nM] | GI50 [1, 7] [nM] | GI50 [1, 8] [nM] | GI50 [1, 9] [nM] | GI50 [1, 10] [nM] | IC50 (EGFR L858R) [nM] | IC50 [2] [nM] | IC50 (EGFR L858R/T790M) [nM] | IC50 (EGFR Exon19Del/T790M) [nM] | IC50 (EGFR (C797S L858R)) [nM] | GI50 (PC-9) [nM] | GI50 (A-431; A-431 cells) [nM] | also measured | Compound
> 5000 | 152 | 63 | > 5000 | 144 | 2240 | 57 | 356 | 305 | 188 | 459 | 866 | 462 | > 5000 | 59 | > 5000 | 132 | > 5000 |  |  |  | CCn1cc2cc(c1=O)-c1cnn(C)c1OCCC[C@@H](C)Cn1c(nc3ccc(N4CCN(C)CC4)cc31)NC2=O [Example A14, (11R)-26-Ethyl-5,11-dimethyl-16-(4-methylpiperazin-1-yl)-7-oxa-4,5,13,20,22,26-hexaazapentacyclo[22.3.1.0^{2,6}.0^{13,21}.0^{14,19}]octacosa-1(28),2(6),3,14,16,18,20,24-octaene-23,27-dione]
4.3 | 10 | 1.4 | 809 | 3.5 | 1070 | 0.64 | 2.5 | 3.9 | 5.2 | 5.3 | 8.4 | 2.6 | 45 | 2.9 | 6.3 | 2.8 | 19 |  |  |  | Cn1ncc2c1OCCN1CC3CCC(C3)(C1)n1c(nc3ccc(N4CCOCC4)cc31)NC(=O)c1cc-2c(=O)n(C)c1 (single isomer, unassigned) [Example A62B, 15,21-Dimethyl-5-(morpholin-4-yl)-23-oxa-2,9,11,15,20,21,26-heptaazaheptacyclo[24.4.1.1^{1,28}.1^{13,17}.0^{2,10}.0^{3,8}.0^{18,22}]tritriaconta-3,5,7,9,13,17(33),18(22),19-octaene-12,16-dione]
4400 | 128 | 173 | > 5000 | 189 | 5140 | 33 | 368 | 309 | 291 | 260 | 219 | 323 | 2150 | 166 | 2630 | 164 | 1950 |  |  |  | Cn1ncc2c1OCCN1CCCC(C)(C1)n1c(nc3ccc(N4CCOCC4)cc31)NC(=O)c1cc-2c(=O)n(C)c1 (stereo not drawn) [Example A10, 1,15,21-trimethyl-5-(morpholin-4-yl)-23-oxa-2,9,11,15,20,21,26-heptaazahexacyclo[24.3.1.1^{13,17}.0^{2,10}.0^{3,8}.0^{18,22}]hentriaconta-3,5,7,9,13,17(31),18(22),19-octaene-12,16-dione]
0.96 |  | 0.51 | 8 | 0.86 |  |  |  |  |  |  |  |  | 1.6 | 1.1 | 0.92 | 0.94 | 1.1 | 5 | 620 | GI50 [1, 11]: 0.67 nM; GI50 [1, 12]: 1.4 nM; GI50 [1, 13]: 1.1 nM; GI50 [1, 14]: 3.1 nM; GI50 [1, 15]: 1.3 nM; GI50 [1, 16]: 8.6 nM; GI50 [1, 17]: 1.9 nM | CN1CCN(c2ccc3nc4n(c3c2)C23CCC(CN(CCOc5c(cnn5C)-c5cc(cn(C)c5=O)C(=O)N4)C2)C3)CC1 (single isomer, unassigned) [Example A63B]
7.2 | 51 | 1.8 | 103 | 3.7 | 1280 | 4.6 | 25 | 26 | 31 | 29 | 52 | 36 | 16 | 4.4 | 8.4 | 3.7 | 8.4 |  |  |  | C[C@@H]1CCCOc2c(cnn2C)-c2cc(cn(C)c2=O)C(=O)Nc2nc3ccc(N4CCNCC4)cc3n2C1 [Example A55]
4.7 |  | 1.7 | 224 | 4.4 |  |  |  |  |  |  |  |  | 14 | 4.8 | 5.7 | 4.9 | 8.4 | 24 | 1450 | GI50 [1, 11]: 0.76 nM; GI50 [1, 12]: 5.6 nM; GI50 [1, 13]: 2 nM; GI50 [1, 14]: 3 nM; GI50 [1, 15]: 3.5 nM; GI50 [1, 16]: 13 nM; GI50 [1, 17]: 6.4 nM | CN(C)C1CCN(c2ccc3nc4n(c3c2)C23CCC(CN(CCOc5c(cnn5C)-c5cc(cn(C)c5=O)C(=O)N4)C2)C3)CC1(F)F (single isomer, unassigned) [Example A97B]
5.4 |  | 2.2 | 134 | 1.9 |  |  |  |  |  |  |  |  | 16 | 4 | 7.4 | 3.8 | 11 | 28 | 1700 | GI50 [1, 11]: 0.57 nM; GI50 [1, 12]: 3.2 nM; GI50 [1, 13]: 2.2 nM; GI50 [1, 14]: 3.8 nM; GI50 [1, 15]: 4.1 nM; GI50 [1, 16]: 9.2 nM; GI50 [1, 17]: 2.6 nM | CN(C)CCCN(C)c1ccc2nc3n(c2c1)C12CCC(CN(CCOc4c(cnn4C)-c4cc(cn(C)c4=O)C(=O)N3)C1)C2 (single isomer, unassigned) [Example A89B]
21 | 51 | 7.2 | > 5000 | 15 | 639 | 7.4 | 27 | 28 | 34 | 35 | 51 | 49 | 462 | 13 | 70 | 12 | 135 |  |  |  | C[C@@H]1CCCOc2c(cnn2C)-c2cc(cn(C)c2=O)C(=O)Nc2nc3ccc(N4CCN(CC(F)(F)F)CC4)cc3n2C1 [Example A53]
